Experimental findings from PubChem BioAssay (NCI) are described below.

Test systems include SNB-19 CNS; TK-10 renal; RXF 393 renal; MDA-MB-435; U251 CNS; SN12C renal; CCRF-CEM leukemia; OVCAR-3 ovarian; SK-OV-3 ovarian; HCC-2998 colon.
Common to all, as to assay: NCI anticancer screen, dose series, 48 h

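Protocol summary: plate cells (96-well), add compound at 5 concentrations, incubate 48 h, interpolate endpoints linearly. TGI is the concentration that stops growth completely.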

Regarding `COc1c(NC(C)=O)c2ccccc2c2ccccc12`, the TGI in the test with SNB-19 CNS, with TK-10 renal, in the test with RXF 393 renal, with MDA-MB-435, with U251 CNS and with SN12C renal was above 100 µM throughout. The TGI in the test on CCRF-CEM leukemia and in the test on OVCAR-3 ovarian was above 100 µM throughout.
`CC(C)(C)N=C1C(=O)C2(C)CCC1C2(C)C` (stereo not drawn): the TGI in the test on SNB-19 CNS, in the test with TK-10 renal, with SK-OV-3 ovarian, in the test with HCC-2998 colon, with RXF 393 renal and in the test on MDA-MB-435 was above 100 µM each time. For the same compound, the TGI in the test with U251 CNS and with OVCAR-3 ovarian was above 100 µM in each case.
`C[C@H](NC(=O)C(C)(Cc1ccc(O)cn1)NC(=O)c1ccccc1)c1ccccc1` (stereo partly drawn): the TGI with SNB-19 CNS, with TK-10 renal, with HCC-2998 colon, in the test with RXF 393 renal, with MDA-MB-435 and in the test with U251 CNS was above 100 µM each time. In addition, the TGI in the test with SN12C renal, in the test on CCRF-CEM leukemia and in the test with OVCAR-3 ovarian was above 100 µM in each case.
Take `COc1ccc(/C=C/C(=O)c2cc(CN(C)C)c(O)c(CN(C)C)c2)cc1`: the TGI with SNB-19 CNS, with TK-10 renal, with RXF 393 renal, in the test on MDA-MB-435, in the test with U251 CNS and with SN12C renal was above 100 µM throughout. The TGI in the test on CCRF-CEM leukemia was above 100 µM; with OVCAR-3 ovarian it was 56 µM.
`CCOC(=O)c1cnc2n(c1=O)[C@H]1CCCC[C@@H]1N2`: the TGI in the test on SNB-19 CNS, with SK-OV-3 ovarian, with HCC-2998 colon, in the test on MDA-MB-435, with U251 CNS and with SN12C renal was above 100 µM each time. The TGI with CCRF-CEM leukemia and in the test with OVCAR-3 ovarian was above 100 µM throughout.
Consider `Cc1cc(NS(=O)(=O)c2ccc(Nc3c4ccccc4nc4c(C(=O)NC(CO)(CO)CO)cccc34)cc2)no1`, for which the TGI in the test with SNB-19 CNS is above 100 µM; with TK-10 renal, 61.7 µM; in the test on SK-OV-3 ovarian, above 100 µM; in the test with HCC-2998 colon, 55.7 µM; in the test on MDA-MB-435 it was above 100 µM; in the test on U251 CNS, above 100 µM. The TGI is 78.6 µM in the test with SN12C renal, 66.3 µM in the test with CCRF-CEM leukemia and above 100 µM in the test with OVCAR-3 ovarian.
For the compound `Cc1cc2ccccc2oc(=O)/c1=N\Nc1ccccc1`, the TGI was above 100 µM in the test with SNB-19 CNS; 62.8 µM in the test on SK-OV-3 ovarian; above 100 µM in the test on HCC-2998 colon; 88.4 µM in the test with RXF 393 renal; above 100 µM in the test with MDA-MB-435; above 100 µM in the test on U251 CNS. In addition, the TGI with SN12C renal, with CCRF-CEM leukemia and in the test with OVCAR-3 ovarian was above 100 µM each time.
As for `C=CCN1C(=O)C[C@H](Cc2ccccc2)NC(=O)C[C@H](Cc2ccccc2)N(CC=C)C(=O)C[C@H](Cc2ccccc2)NC(=O)C[C@@H]1Cc1ccccc1`, the TGI in the test with SNB-19 CNS, in the test with TK-10 renal, in the test with SK-OV-3 ovarian, in the test on RXF 393 renal, in the test on MDA-MB-435 and with U251 CNS was above 100 µM each time. Moreover, the TGI in the test on SN12C renal, in the test with CCRF-CEM leukemia and in the test with OVCAR-3 ovarian was above 100 µM in each case.
Turning to `O=C(Oc1cncc(Cl)c1)c1cc2ccccc2sc1=O`, the TGI with SNB-19 CNS was above 100 µM; with TK-10 renal, above 100 µM; in the test with SK-OV-3 ovarian, above 100 µM; in the test on HCC-2998 colon, above 100 µM; in the test on RXF 393 renal it was 91.1 µM; with MDA-MB-435, above 100 µM. Besides, the TGI in the test on U251 CNS, in the test on SN12C renal and with OVCAR-3 ovarian was above 100 µM each time.
On to `CC(=O)N1CCOC12N=NC(C)(C)O2` (stereo not drawn), for which the TGI with SNB-19 CNS, in the test on TK-10 renal, in the test with SK-OV-3 ovarian, in the test on HCC-2998 colon, in the test on MDA-MB-435 and in the test on U251 CNS was above 100 µM in each case. Besides, the TGI with SN12C renal and in the test on OVCAR-3 ovarian was above 100 µM throughout.
With `Cc1ccc(N=Nc2c(O)ccc3ccccc23)c(C)c1`, the TGI in the test on SNB-19 CNS, in the test with TK-10 renal, in the test on SK-OV-3 ovarian, in the test on RXF 393 renal, in the test on MDA-MB-435 and in the test on U251 CNS was above 100 µM throughout. Besides, the TGI in the test with SN12C renal and in the test with OVCAR-3 ovarian was above 100 µM throughout.
For `O=C1CC(c2cccc([N+](=O)[O-])c2)C2(C(=O)NC(=S)NC2=O)C(c2cccc([N+](=O)[O-])c2)C1` (stereo not drawn), the TGI in the test with SNB-19 CNS was 58.8 µM; in the test with TK-10 renal, 47.7 µM; in the test with SK-OV-3 ovarian, above 100 µM; with HCC-2998 colon it was 59.2 µM; with MDA-MB-435, 66.2 µM; with U251 CNS, 81.3 µM. The results for the TGI in the test with SN12C renal, in the test with CCRF-CEM leukemia and in the test on OVCAR-3 ovarian were 52.3 µM, 97.1 µM and above 100 µM, respectively.
For `COc1ccc(-c2nc(-c3cnccn3)n(C/C=C/c3ccccc3)n2)cc1`, the TGI in the test with SNB-19 CNS, with SK-OV-3 ovarian, in the test with HCC-2998 colon, in the test with MDA-MB-435, with U251 CNS and in the test on SN12C renal was above 100 µM in each case. Also, the TGI with CCRF-CEM leukemia and with OVCAR-3 ovarian was above 100 µM each time.
Regarding `COc1ccc(NCn2nc(CCCCCCCCc3nn(CNc4ccc(OC)cc4)c(=S)o3)oc2=S)cc1`, the TGI with SNB-19 CNS, with TK-10 renal, with SK-OV-3 ovarian, in the test with HCC-2998 colon, with RXF 393 renal and in the test on MDA-MB-435 was above 100 µM each time. The TGI in the test on U251 CNS and in the test on SN12C renal was above 100 µM throughout.
Turning to `COc1ccc(-c2csc3c2[N+]2(C)C=CC=C2C3N2CCCC2)cc1` (stereo not drawn), the TGI is above 100 µM in the test with SNB-19 CNS; above 100 µM with TK-10 renal; above 100 µM with SK-OV-3 ovarian; above 100 µM in the test on RXF 393 renal; 59.5 µM in the test with MDA-MB-435; 23.3 µM in the test with U251 CNS. In addition, the figures for the TGI with CCRF-CEM leukemia and in the test with OVCAR-3 ovarian were above 100 µM and 52.6 µM, respectively.
Consider `O=S1(=O)N=C(SCc2c[nH]c3ccccc23)N(c2ccccc2)c2ccncc21`, for which the TGI in the test on SNB-19 CNS, with TK-10 renal, in the test with SK-OV-3 ovarian, in the test on HCC-2998 colon, in the test with MDA-MB-435 and in the test on U251 CNS was above 100 µM in each case. The TGI in the test with SN12C renal, in the test on CCRF-CEM leukemia and in the test with OVCAR-3 ovarian was above 100 µM in each case.
For `COc1cc(/C=C2\N=C(c3ccccc3)N(c3cc4cc(Sc5ccccc5)ccc4[nH]3)C2=O)ccc1O`, the TGI in the test with SNB-19 CNS is above 50 µM; in the test on HCC-2998 colon it was above 50 µM; in the test with RXF 393 renal it was 27.4 µM; in the test on MDA-MB-435, 5.56 µM; in the test on SN12C renal it was above 50 µM; with CCRF-CEM leukemia, above 50 µM.
As for `Oc1c(NCn2nc(CCCCCCCCc3nn(CNc4ccc5ccccc5c4O)c(=S)o3)oc2=S)ccc2ccccc12`, the TGI in the test with SNB-19 CNS is above 100 µM; in the test on TK-10 renal, above 100 µM; with SK-OV-3 ovarian, above 100 µM; with HCC-2998 colon, above 100 µM; in the test with RXF 393 renal, above 100 µM; with MDA-MB-435, 43.2 µM. Further, the TGI in the test with U251 CNS and with SN12C renal was above 100 µM in each case.
As to `O=C(NNC(=O)c1ccncc1)C(=O)Nc1cc(Cl)c(Cl)cc1Cl`, the TGI was above 100 µM in the test with SNB-19 CNS; above 100 µM in the test on TK-10 renal; above 100 µM with SK-OV-3 ovarian; 57.8 µM in the test with HCC-2998 colon; above 100 µM in the test with RXF 393 renal; above 100 µM in the test with MDA-MB-435. The TGI with U251 CNS, with SN12C renal and with OVCAR-3 ovarian was above 100 µM in each case.
Consider `CCC1OC2(C)CC(C#N)(C#N)C1(C#N)C(=N)O2` (stereo not drawn), for which the TGI in the test on SNB-19 CNS, in the test with TK-10 renal, in the test with SK-OV-3 ovarian, with RXF 393 renal, in the test with MDA-MB-435 and with U251 CNS was above 100 µM in each case. For the same compound, the TGI in the test with SN12C renal, in the test with CCRF-CEM leukemia and with OVCAR-3 ovarian was above 100 µM throughout.
Regarding `CCOC(=O)C1=C(N2CCCC2)C(=O)C(C(=O)OCC)C1` (stereo not drawn), the TGI with SNB-19 CNS, in the test on TK-10 renal, with SK-OV-3 ovarian, in the test on HCC-2998 colon, in the test with RXF 393 renal and in the test with MDA-MB-435 was above 100 µM throughout. Moreover, the TGI with U251 CNS, with SN12C renal and in the test on OVCAR-3 ovarian was above 100 µM each time.
In the case of `Clc1cc(Cl)nc(Nc2ccc3c(c2)CCC3)n1`, the TGI in the test on SNB-19 CNS is above 100 µM; in the test with TK-10 renal, above 100 µM; with SK-OV-3 ovarian, above 100 µM; in the test with HCC-2998 colon it was 30.4 µM; in the test with MDA-MB-435 it was above 100 µM; in the test on U251 CNS, above 100 µM. Also, the TGI in the test on SN12C renal was above 100 µM; with CCRF-CEM leukemia, 72.8 µM; in the test on OVCAR-3 ovarian it was above 100 µM.
`C/C(=N\Nc1nc2cc(F)ccc2s1)c1ccccn1`: the TGI in the test with SNB-19 CNS was above 41.7 µM; in the test with SK-OV-3 ovarian, 5.37 µM; in the test with RXF 393 renal, 6.65 µM; in the test with MDA-MB-435 it was above 100 µM; with U251 CNS, above 33.3 µM; in the test with SN12C renal it was above 43.8 µM. The TGI is above 100 µM in the test with CCRF-CEM leukemia and 5.45 µM in the test with OVCAR-3 ovarian.
